Patent publication US20200308171A1, “BIFUNCTIONAL INHIBITORS WITH EGFR HAVING A E3 UBIQUITIN LIGASE MOIETY” (Hoffmann-La Roche Inc., priority 2017, published 2020)

biological target: T1, EGFR T790M/L858R/C797S (Homo sapiens, UniProt P00533, C797S/L858R/T790M); test: EGFR Degradation Assay (Cellular), FRET quantification of total EGFR; assay type: cell-based; conditions: BaF3 EGFR mutant cell line (EGFR T790M/L858R/C797S); 4-hour incubation; total EGFR FRET kit; top concentration 1 μM, 11 points; read-out: IC50 [nM] mutant EGFR degradation
T1 construct: expressed in transfected cells; host or cells: BaF3 (murine pro-B) cells stably transduced with pCDH lentiviral vector, PGK promoter
Protocol: EGFR Degradation Assay (Cellular)
The BaF3 parental line was purchased from DSMZ and grown in RPMI media supplemented with 10% FBS and 10 ng/mL interleukin 3 (IL-3) (Thermo Fisher Scientific). EGFR mutants ([…]) were cloned into the pCDH lentiviral vector (SystemBio) under the control of a PGK promoter and confirmed by DNA sequencing. The resulting gene expression vector for each mutant was mixed with packaging vectors and cotransfected into 2×10E6 HEK293T cells (ATCC) in 10 mL of DMEM media to generate lentiviral particles according to the manufacturers protocol (Origene).
Three days post-transfection, the viral supernatant was harvested and filtered. In one well of a 12-well plate, 0.5 mL of viral supernatant was added to 2E6 Ba/F3 cells contained in 1.5 mL of RPMI media including 10% FBS, 10 ng/mL IL-3, and 5 μg/mL polybrene (Invitrogen). The plate was centrifuged at 2,000 rpm for 1 hour at room temperature and infected cells were kept in a tissue culture incubator overnight at 37° C. The cells were washed once in fresh BaF3 media and reseeded at 0.5E6 cells/well of a 12-well plate in media supplemented with 0.5 μg/mL puromycin. The cells were maintained in this media for 3 weeks. IL-3-independent, EGFR mutant transformed cells were routinely maintained in RPMI medium supplemented with 10% FBS.
RPMI 1640 no-phenol red medium and fetal bovine serum (FBS) were purchased from Gibco (Grand Island, N.Y., USA). EGFR total kit and EGFR phospho-Y1068 kit were purchased from Cisbio (Bedford, Mass., USA). BaF3 EGFR mutant cell lines (EGFR T790M/L858R/C797S) cell line was generated in house, according to the protocol reported above. Cell culture flasks and 384-well microplates were acquired from VWR (Radnor, Pa., USA).
EGFR degradation was determined based on quantification of FRET signal using EGFR total kit. The FRET signal detected correlates with total EGFR protein level in cells. Briefly, test compounds were added to the 384-well plate from a top concentration of 1 μM with 11 points, half log titration in quadruplicates. Then, BaF3 EGFR mutant cell lines (EGFR T790M/L858R/C797S) were added into 384-well plates at a cell density of 10000 cells per well. The plates were kept at 37° C. with 5% CO2 for 4 hours. After 4-hour incubation, 4× lysis buffer was added to the cells, and then microplate was agitated on plate shaker at 500 rpm for 30 minutes at room temperature. Next, total EGFR antibody solution was added to the cells and the cells were incubated for another 4 hours at room temperature. Finally, FRET signal was acquired on EnVision™ Multilabel Reader (PerkinElmer, Santa Clara, Calif., USA). The cells treated in the absence of the test compound were the negative control and lysis buffer with antibody solution only were the positive control.

T1 sequence (P00533 25-1210 T790M/C797S/L858R): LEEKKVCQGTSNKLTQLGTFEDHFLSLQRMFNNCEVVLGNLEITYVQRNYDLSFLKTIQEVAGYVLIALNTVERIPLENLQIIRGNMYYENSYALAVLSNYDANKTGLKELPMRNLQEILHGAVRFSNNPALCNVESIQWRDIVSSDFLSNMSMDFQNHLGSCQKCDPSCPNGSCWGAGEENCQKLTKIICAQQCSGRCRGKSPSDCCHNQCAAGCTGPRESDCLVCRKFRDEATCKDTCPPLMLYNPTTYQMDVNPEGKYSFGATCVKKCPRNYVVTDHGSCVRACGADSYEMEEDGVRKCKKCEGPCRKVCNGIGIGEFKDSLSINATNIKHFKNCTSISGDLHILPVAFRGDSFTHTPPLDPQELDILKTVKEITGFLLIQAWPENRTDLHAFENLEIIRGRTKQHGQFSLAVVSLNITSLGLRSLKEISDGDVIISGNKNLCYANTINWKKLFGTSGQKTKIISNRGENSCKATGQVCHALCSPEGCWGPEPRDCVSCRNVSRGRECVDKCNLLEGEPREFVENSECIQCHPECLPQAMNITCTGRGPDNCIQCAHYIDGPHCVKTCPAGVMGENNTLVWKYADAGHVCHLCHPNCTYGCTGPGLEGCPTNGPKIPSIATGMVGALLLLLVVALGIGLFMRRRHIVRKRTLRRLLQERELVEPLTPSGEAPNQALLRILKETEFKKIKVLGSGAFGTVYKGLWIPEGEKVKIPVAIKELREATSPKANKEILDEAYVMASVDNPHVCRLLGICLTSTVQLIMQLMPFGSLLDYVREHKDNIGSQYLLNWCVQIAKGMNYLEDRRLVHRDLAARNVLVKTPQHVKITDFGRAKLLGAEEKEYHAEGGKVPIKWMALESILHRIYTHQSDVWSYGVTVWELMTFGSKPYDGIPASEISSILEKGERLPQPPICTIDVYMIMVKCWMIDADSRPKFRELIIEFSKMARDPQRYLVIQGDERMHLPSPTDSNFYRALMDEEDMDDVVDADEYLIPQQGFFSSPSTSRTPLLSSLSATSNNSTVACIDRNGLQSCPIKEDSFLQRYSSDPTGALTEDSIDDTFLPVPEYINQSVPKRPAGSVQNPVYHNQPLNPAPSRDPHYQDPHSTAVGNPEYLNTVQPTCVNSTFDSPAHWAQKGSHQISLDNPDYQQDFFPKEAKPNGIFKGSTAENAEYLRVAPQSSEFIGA

| Compound | DC50 |
| --- | --- |
| COC1CCN(c2nccc(Nc3cc4c(cn3)c(C(=O)NC3CCN(C(=O)CCCCCNc5cccc6c5C(=O)N(C5CCC(=O)NC5=O)C6=O)CC3)cn4C(C)C)n2)CC1 (racemic) [Example 1, N-[1-[6-[[2-[(3RS)-2,6-Dioxo-3-piperidyl]-1,3-dioxo-isoindolin-4-yl]amino]hexanoyl]-4-piperidyl]-1-isopropyl-6-[[2-(4-methoxy-1-piperidyl)pyrimidin-4-yl]amino]pyrrolo[3,2-c]pyridine-3-carboxamide] | 59 nM |
| CO[C@H]1CCN(c2nccc(Nc3cc4c(cn3)c(C(=O)NC3CCN(CCCCNc5cccc6c5C(=O)N(C5CCC(=O)NC5=O)C6=O)CC3)cn4C(C)C)n2)C[C@H]1F (mixture of isomers) [Example 14, N-[1-[4-[[2-[(3RS)-2,6-Dioxo-3-piperidyl]-1,3-dioxo-isoindolin-4-yl]amino]butyl]-4-piperidyl]-6-[[2-[(3R,4S)-3-fluoro-4-methoxy-1-piperidyl]pyrimidin-4-yl]amino]-1-isopropyl-pyrrolo[3,2-c]pyridine-3-carboxamide] | 41 nM |
| CO[C@H]1CCN(c2nccc(Nc3cc4c(cn3)c(C(=O)NC3CCN(CCCOC5CCN(c6cccc7c6C(=O)N(C6CCC(=O)NC6=O)C7=O)CC5)CC3)cn4C(C)C)n2)C[C@H]1F (mixture of isomers) [Example 17, N-[1-[3-[[1-[2-[(3RS)-2,6-Dioxo-3-piperidyl]-1,3-dioxo-isoindolin-4-yl]-4-piperidyl]oxy]propyl]-4-piperidyl]-6-[[2-[(3R,4S)-3-fluoro-4-methoxy-1-piperidyl]pyrimidin-4-yl]amino]-1-isopropyl-pyrrolo[3,2-c]pyridine-3-carboxamide] | 74 nM |
| CO[C@@H]1CCN(c2nccc(Nc3cc4c(cn3)c(C(=O)NC3CCN(CCCCCCNc5cccc6c5C(=O)N(C5CCC(=O)NC5=O)C6=O)CC3)cn4C(C)C)n2)C[C@@H]1F (mixture of isomers) [Example 8, N-[1-[6-[[2-[(3RS)-2,6-Dioxo-3-piperidyl]-1,3-dioxo-isoindolin-4-yl]amino]hexyl]-4-piperidyl]-6-[[2-[(3S,4R)-3-fluoro-4-methoxy-1-piperidyl]pyrimidin-4-yl]amino]-1-isopropyl-pyrrolo[3,2-c]pyridine-3-carboxamide] | 46 nM |
| COC1CCN(c2nccc(Nc3cc4c(cn3)c(N3CCC(C(=O)NC5CCN(CCCCCCNc6cccc7c6C(=O)N(C6CCC(=O)NC6=O)C7=O)CC5)C3)nn4C(C)C)n2)CC1 (racemic) [Example 6, (3RS)—N-[1-[6-[[2-[(3RS)-2,6-Dioxo-3-piperidyl]-1,3-dioxo-isoindolin-4-yl]amino]hexyl]-4-piperidyl]-1-[1-isopropyl-6-[[2-(4-methoxy-1-piperidyl)pyrimidin-4-yl]amino]pyrazolo[4,3-c]pyridin-3-yl]pyrrolidine-3-carboxamide] | 46 nM |
| CO[C@H]1CCN(c2nccc(Nc3cc4c(cn3)c(C(=O)NC3CCN(CCCOC5CCN(c6cccc7c6C(=O)N(C6CCC(=O)NC6=O)C7=O)CC5)CC3)cn4C3CCCC3)n2)C[C@H]1F (single isomer, unassigned) [Example 18] | 45 nM |
| CO[C@H]1CCN(c2nccc(Nc3cc4c(cn3)c(C(=O)NC3CCN(CCCCCCNc5cccc6c5C(=O)N(C5CCC(=O)NC5=O)C6=O)CC3)cn4C(C)C)n2)C[C@H]1F (mixture of isomers) [Example 7, N-[1-[6-[[2-[(3RS)-2,6-Dioxo-3-piperidyl]-1,3-dioxo-isoindolin-4-yl]amino]hexyl]-4-piperidyl]-6-[[2-[(3R,4S)-3-fluoro-4-methoxy-1-piperidyl]pyrimidin-4-yl]amino]-1-isopropyl-pyrrolo[3,2-c]pyridine-3-carboxamide] | 70 nM |
| CO[C@H]1CCN(c2nccc(Nc3cc4c(cn3)c(C(=O)NC3CCN(CCCCCNc5cccc6c5C(=O)N(C5CCC(=O)NC5=O)C6=O)CC3)cn4C3CCCC3)n2)C[C@H]1F (mixture of isomers) [Example 11, 1-Cyclopentyl-N-[1-[5-[[2-[(3RS)-2,6-dioxo-3-piperidyl]-1,3-dioxo-isoindolin-4-yl]amino]pentyl]-4-piperidyl]-6-[[2-[(3R,4S)-3-fluoro-4-methoxy-1-piperidyl]pyrimidin-4-yl]amino]pyrrolo[3,2-c]pyridine-3-carboxamide] | 43 nM |

The next compounds have a lower DC50 than those just listed; values first:

| DC50 | Compound |
| --- | --- |
| 38 nM | COC1CCN(c2nccc(Nc3cc4c(cn3)c(C(=O)NC3CCN(CCCCCCNc5cccc6c5C(=O)N(C5CCC(=O)NC5=O)C6=O)CC3)cn4C3CCCC3)n2)CC1 (racemic) [Example 4, 1-Cyclopentyl-N-[1-[6-[[2-[(3RS)-2,6-dioxo-3-piperidyl]-1,3-dioxo-isoindolin-4-yl]amino]hexyl]-4-piperidyl]-6-[[2-(4-methoxy-1-piperidyl)pyrimidin-4-yl]amino]pyrrolo[3,2-c]pyridine-3-carboxamide] |
| 2 nM | CO[C@@H]1CCN(c2nccc(Nc3cc4c(cn3)c(C(=O)NC3CCN(CCCCCCNc5cccc6c5C(=O)N(C5CCC(=O)NC5=O)C6=O)CC3)nn4C(C)C)n2)C[C@@H]1F (mixture of isomers) [Example 21, N-[1-[6-[[2-[(3RS)-2,6-Dioxo-3-piperidyl]-1,3-dioxo-isoindolin-4-yl]amino]hexyl]-4-piperidyl]-6-[[2-[(3S,4R)-3-fluoro-4-methoxy-1-piperidyl]pyrimidin-4-yl]amino]-1-isopropyl-pyrazolo[4,3-c]pyridine-3-carboxamide] |
| 5 nM | CO[C@H]1CCN(c2nccc(Nc3cc4c(cn3)c(C(=O)NC3CCN(CCCC5CN(c6cccc7c6C(=O)N(C6CCC(=O)NC6=O)C7=O)C5)CC3)cn4C(C)C)n2)C[C@H]1F (mixture of isomers) [Example 24, N-[1-[3-[1-[2-[(3RS)-2,6-Dioxo-3-piperidyl]-1,3-dioxo-isoindolin-4-yl]azetidin-3-yl]propyl]-4-piperidyl]-6-[[2-[(3R,4S)-3-fluoro-4-methoxy-1-piperidyl]pyrimidin-4-yl]amino]-1-isopropyl-pyrrolo[3,2-c]pyridine-3-carboxamide] |
| 15 nM | CO[C@H]1CCN(c2nccc(Nc3cc4c(cn3)c(C(=O)NC3CCN(CCC[C@H]5CC[C@H](Nc6cccc7c6C(=O)N(C6CCC(=O)NC6=O)C7=O)CC5)CC3)cn4C(C)C)n2)C[C@H]1F (mixture of isomers) [Example 20, N-[1-[3-[4-[[2-[(3RS)-2,6-Dioxo-3-piperidyl]-1,3-dioxo-isoindolin-4-yl]amino]cyclohexyl]propyl]-4-piperidyl]-6-[[2-[(3R,4S)-3-fluoro-4-methoxy-l-piperidyl]pyrimidin-4-yl]amino]-1-isopropyl-pyrrolo[3,2-c]pyridine-3-carboxamide] |
| 8 nM | CO[C@H]1CCN(c2nccc(Nc3cc4c(cn3)c(C(=O)NC3CCN(CCC5CN(c6cccc7c6C(=O)N(C6CCC(=O)NC6=O)C7=O)C5)CC3)cn4C(C)C)n2)C[C@H]1F (mixture of isomers) [Example 23, N-[1-[2-[1-[2-[(3RS)-2,6-Dioxo-3-piperidyl]-1,3-dioxo-isoindolin-4-yl]azetidin-3-yl]ethyl]-4-piperidyl]-6-[[2-[(3R,4S)-3-fluoro-4-methoxy-1-piperidyl]pyrimidin-4-yl]amino]-1-isopropyl-pyrrolo[3,2-c]pyridine-3-carboxamide] |
| 28 nM | CO[C@H]1CCN(c2nccc(Nc3cc4c(cn3)c(C(=O)NC3CCN(CCC5CCN(c6ccc7c(c6)C(=O)N(C6CCC(=O)NC6=O)C7=O)CC5)CC3)cn4C(C)C)n2)C[C@H]1F (mixture of isomers) [Example 16, N-[1-[2-[1-[2-[(3RS)-2,6-Dioxo-3-piperidyl]-1,3-dioxo-isoindolin-5-yl]-4-piperidyl]ethyl]-4-piperidyl]-6-[[2-[(3R,4S)-3-fluoro-4-methoxy-1-piperidyl]pyrimidin-4-yl]amino]-1-isopropyl-pyrrolo[3,2-c]pyridine-3-carboxamide] |
